How the values were obtained:
[1] = molecular target: T1, human LOXL2 (Homo sapiens, UniProt Q9Y4K0); experiment: Human LOXL2 amine oxidase activity assay (Amplex Red fluorescence); format: biochemical; conditions: concentrated conditioned media from CHO cells stably expressing human LOXL2; 2 h at 37° C. preincubation; DAP substrate
T1 construct: expressed in transfected cells; 10-20x concentrated conditioned media used as the enzyme source
T1 sequence (Q9Y4K0 26-774): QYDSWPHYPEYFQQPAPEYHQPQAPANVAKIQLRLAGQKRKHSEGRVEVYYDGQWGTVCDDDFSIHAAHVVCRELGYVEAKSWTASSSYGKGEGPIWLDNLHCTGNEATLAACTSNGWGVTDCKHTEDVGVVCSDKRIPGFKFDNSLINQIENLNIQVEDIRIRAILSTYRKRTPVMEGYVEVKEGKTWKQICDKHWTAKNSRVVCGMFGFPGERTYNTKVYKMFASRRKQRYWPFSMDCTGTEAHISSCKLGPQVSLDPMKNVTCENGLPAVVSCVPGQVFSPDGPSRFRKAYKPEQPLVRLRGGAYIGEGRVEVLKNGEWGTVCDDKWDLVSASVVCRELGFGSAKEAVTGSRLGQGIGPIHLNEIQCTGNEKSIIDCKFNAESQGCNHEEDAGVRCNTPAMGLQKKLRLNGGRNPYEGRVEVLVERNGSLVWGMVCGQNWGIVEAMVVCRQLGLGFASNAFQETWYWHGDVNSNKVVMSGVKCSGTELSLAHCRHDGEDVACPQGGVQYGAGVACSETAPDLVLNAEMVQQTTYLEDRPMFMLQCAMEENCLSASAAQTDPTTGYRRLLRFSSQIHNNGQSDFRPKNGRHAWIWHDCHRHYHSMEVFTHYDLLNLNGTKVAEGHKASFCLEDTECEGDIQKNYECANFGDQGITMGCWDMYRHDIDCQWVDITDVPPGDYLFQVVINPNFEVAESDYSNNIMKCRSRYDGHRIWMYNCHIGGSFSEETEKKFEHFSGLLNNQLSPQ
In short: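 Enzyme source: 10-20× concentrated conditioned media from CHO cells stably expressing human LOXL2, preincubated with compound for 2 h at 37° C in 50 mM borate pH 8. Reaction started with 1,5-diaminopentane plus Amplex Red/HRP; fluorescence (ex 544/em 590) read kinetically for 1 hour, activity from linear slope.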

[2] = test system: bleomycin-induced lung fibrosis in C57Bl/6 male mice; experiment: Mouse oropharyngeal bleomycin model of lung fibrosis; format: in vivo; conditions: dosed prophylactically at 60 mg/kg p.o.
Experimental: Example B-3: Mouse Oropharyngeal Bleomycin Model of Lung Fibrosis
Lung fibrosis is induced in C57Bl/6 male mice by administering bleomycin (0.1-4 U/kg) via oropharyngeal instillation. Mice are either pretreated with vehicle or test compound (1 day to 1 hour) orally, intraperitoneally, intravenously or subcutaneously before bleomycin installation (prophylactic dosing) or 7-14 days post bleomycin instillation (therapeutic dosing). The route and frequency of dosing are based on previously determined pharmacokinetic properties for the LOXL2 inhibitor in mouse. After bleomycin instillation animals are monitored daily for weight loss and clinical signs for 14-28 days prior to sacrifice. […] For histological examination, lung slices are stained with Masson's trichrome or Picro-Sirius red to measure cross-linked collagen as an indicator of fibrosis and an Ashcroft score of lung fibrotic and inflammatory damage determined. In addition, immunohistochemistry of fibrotic proteins such as a-smooth muscle actin can be recorded. […] After the acid hydrolysis, 25-100 μl of the supernatant is dried down, resuspended in 25 μl water and the hydroxyproline content determined by the addition of 0.5 ml Chloramine T solution (140 mg Chloramine T in 6.5 ml ddH20+1 ml n-propanol+2.5 ml 1M sodium acetate) and incubation at room temperature for 20 min. […]

| IC50 [1] [nM] | SMILES | efficacy in mouse oropharyngeal bleomycin model of lung fibrosis [2] |
| --- | --- | --- |
| < 100 | Cl.NCc1cc(Oc2cccc(C(=O)NCc3ccnc(Cl)c3)c2)ncn1 [Compound 1-55, 3-((6-(Aminomethyl)pyrimidin-4-yl)oxy)-N-((2-chloropyridin-4-yl)methyl)benzamide] | efficacious |
| < 100 | NCc1cc(Oc2cccc(C(=O)N3CCN(c4ccccc4)CC3)c2)ncn1 [Compound 1-72, (3-((6-(Aminomethyl)pyrimidin-4-yl)oxy)phenyl)(4-phenylpiperazin-1-yl)methanone] | efficacious |
| < 100 | NCc1cc(N2C(=O)CCc3c(OCc4ccccc4)cccc32)ncn1 [Compound 1-107, 1-(6-(Aminomethyl)pyrimidin-4-yl)-5-(benzyloxy)-3,4-dihydroquinolin-2(1H)-one] |  |

Reference: patent US20180186755A1, “LYSYL OXIDASE-LIKE 2 INHIBITORS AND USES THEREOF” (PharmAkea, Inc., priority 2015, published 2018)
